The values that follow come from ChEMBL document CHEMBL1201862, “PubChem BioAssay data set” (2004).

Among the test systems are MDA-MB-231; RXF 393; UACC-257; K562; SF-268; Malme-3M; A498; UO-31; NCI-H226; HL-60; CAKI-1; NCI-H522; COLO 205; DU-145; IGROV-1; MCF7; SR; MDA-MB-435; OVCAR-3; MOLT-4.
Test in all cases: inhibition of tumour cell growth, NCI panel, 48 h

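Compound exposure: 48 hours, 5 concentrations, 96-well plates. Here, GI50 denotes the concentration required for 50% inhibition of growth.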 Activity calls are given as the source filed them. No stated cut-off is given here; in the data, active = GI50 up to about 1.1 µM and inactive = higher.

For the molecule `C/C(=N\Nc1ncnc2ccccc12)c1ccccn1`, the GI50 is < 0.0196 µM (active) in the assay with MDA-MB-231; 0.0371 µM (active) in the assay with RXF 393; < 0.0161 µM (active) in the assay with UACC-257; < 0.0106 µM (active) in the assay with K562; < 0.0177 µM (active) in the assay with SF-268; < 0.0315 µM (active) in the assay with Malme-3M. The GI50 in the assay with A498 was 0.183 µM (active); in the assay on UO-31 it was 0.0516 µM (active); with NCI-H226, 0.0276 µM (active); with HL-60, < 0.01 µM (active); with CAKI-1, < 0.01 µM (active); in the assay on NCI-H522, < 0.01 µM (active). In addition, the GI50 is < 0.01 µM (active) with COLO 205; 0.0718 µM (active) in the assay on DU-145; < 0.0162 µM (active) in the assay with IGROV-1; 0.0138 µM (active) with MCF7; 0.0317 µM (active) with SR; 0.195 µM (active) with MDA-MB-435. In addition, the GI50 was < 0.0166 µM (active) with OVCAR-3 and < 0.0136 µM (active) with MOLT-4.
For `Cc1c2ccc3ccccc3c2c[n+]2ccccc12`, the GI50 was 21.4 µM (inactive) in the assay on MDA-MB-231; 22.3 µM (inactive) in the assay on RXF 393; 7.62 µM (inactive) with UACC-257; 10.7 µM (inactive) with K562; 1.36 µM (inactive) in the assay with SF-268; 1.56 µM (inactive) in the assay with Malme-3M. In addition, the GI50 was > 47.5 µM (inactive) in the assay with A498; 17.5 µM (inactive) in the assay on UO-31; 4.67 µM (inactive) in the assay on NCI-H226; 33.4 µM (inactive) with HL-60; 53.6 µM (inactive) in the assay with CAKI-1; 3.41 µM (inactive) in the assay with NCI-H522. Moreover, the GI50 was 2.82 µM (inactive) in the assay with COLO 205; 11.4 µM (inactive) in the assay on DU-145; 43.5 µM (inactive) in the assay with IGROV-1; 10.4 µM (inactive) in the assay on MCF7; 2.96 µM (inactive) in the assay on SR; 12.6 µM (inactive) with MDA-MB-435. Further, the GI50 is 5.85 µM (inactive) in the assay with OVCAR-3 and 4.66 µM (inactive) in the assay on MOLT-4.
Take `c1ccc2c3ccn4ccc5c6ccccc6[nH]c5c4c-3nc2c1`: the GI50 was 0.329 µM (active) in the assay on MDA-MB-231; 1.32 µM (inactive) in the assay on RXF 393; 2 µM (inactive) in the assay with UACC-257; 0.201 µM (active) with K562; 1.24 µM (inactive) with SF-268; 1.65 µM (inactive) in the assay on Malme-3M. The GI50 in the assay with A498 was 1.63 µM (inactive); in the assay with UO-31 it was 1.39 µM (inactive); with NCI-H226, 1.67 µM (inactive); in the assay on HL-60, 0.935 µM (active); in the assay with CAKI-1, 1.42 µM (inactive); in the assay on NCI-H522, 1.46 µM (inactive). Besides, the GI50 in the assay on COLO 205 was 0.583 µM (active); with DU-145, 1.43 µM (inactive); in the assay with IGROV-1, 1.25 µM (inactive); in the assay with MCF7, 0.331 µM (active); with SR it was 0.0594 µM (active); in the assay with MDA-MB-435, 1.45 µM (inactive). The GI50 in the assay on OVCAR-3 was 0.236 µM (active); in the assay with MOLT-4, 1.42 µM (inactive).
Turning to `CC(=O)OC1COC(Nc2nc(N)n(C)c(=O)c2N=O)C(OC(C)=O)C1OC(C)=O` (configuration not stated), the GI50 in the assay on MDA-MB-231, in the assay with RXF 393, in the assay on UACC-257, in the assay on SF-268, in the assay with Malme-3M and in the assay with A498 was > 10 µM (inactive) each time. For the same molecule, the GI50 in the assay on NCI-H226, with HL-60, with CAKI-1, in the assay on NCI-H522, in the assay on COLO 205 and in the assay with DU-145 was > 10 µM (inactive) each time. The GI50 with IGROV-1, in the assay on MCF7, in the assay on SR, in the assay on MDA-MB-435, in the assay with OVCAR-3 and in the assay with MOLT-4 was > 10 µM (inactive) throughout.
As to `CCOC(=O)CC1CCN(C(=O)c2ccccc2)C2Cc3c([nH]c4ccccc34)C12C[N+](=O)[O-]` (configuration not stated), the GI50 was > 100 µM (inactive) in the assay on MDA-MB-231; 77.1 µM (inactive) in the assay with RXF 393; > 100 µM (inactive) in the assay on UACC-257; 36.4 µM (inactive) in the assay on K562; > 100 µM (inactive) in the assay on SF-268; > 100 µM (inactive) in the assay on Malme-3M. The GI50 was > 100 µM (inactive) in the assay on A498; 48.3 µM (inactive) in the assay with UO-31; > 100 µM (inactive) with NCI-H226; 38.7 µM (inactive) in the assay with HL-60; 62.2 µM (inactive) in the assay with CAKI-1; > 100 µM (inactive) in the assay with NCI-H522. Further, the GI50 in the assay on COLO 205 was 61 µM (inactive); in the assay on DU-145 it was > 100 µM (inactive); in the assay with IGROV-1, 58.7 µM (inactive); in the assay on MCF7, 41 µM (inactive); in the assay with SR, 39.8 µM (inactive); in the assay with MDA-MB-435 it was 97.3 µM (inactive). For the same molecule, the GI50 with MOLT-4 was 35 µM (inactive).
Regarding `O=C(N/C=C1\C(=O)Oc2ccccc2C1=O)Oc1ccccc1`, the GI50 was 16.7 µM (inactive) in the assay on MDA-MB-231; 8.59 µM (inactive) in the assay on RXF 393; 31 µM (inactive) in the assay with UACC-257; 55.3 µM (inactive) in the assay on K562; 19.1 µM (inactive) in the assay on Malme-3M; 15.2 µM (inactive) with A498. Further, the GI50 was 16.4 µM (inactive) in the assay on UO-31; 14.4 µM (inactive) in the assay with NCI-H226; 29.9 µM (inactive) in the assay on HL-60; 21.6 µM (inactive) in the assay with CAKI-1; 25 µM (inactive) in the assay on NCI-H522; 41.4 µM (inactive) with COLO 205. Besides, the GI50 is 20 µM (inactive) in the assay with DU-145; 20.7 µM (inactive) with IGROV-1; 35.1 µM (inactive) in the assay with MCF7; 18 µM (inactive) in the assay on SR; 20.1 µM (inactive) with MDA-MB-435; 17 µM (inactive) in the assay with OVCAR-3. Moreover, in the assay with MOLT-4, the GI50 was 24.9 µM (inactive).
As for `CC1=C(C(=O)N[C@@H](Cc2ccccc2)C(=O)O)N2C(=O)[C@@H](NC(=O)[C@@H](N)CC(C)C)[C@H]2SC1`, the GI50 in the assay on MDA-MB-231, in the assay with RXF 393, in the assay with UACC-257, in the assay with K562, in the assay with SF-268 and in the assay on Malme-3M was > 100 µM (inactive) each time. In addition, the GI50 in the assay on A498, in the assay on NCI-H226, in the assay with HL-60, in the assay with CAKI-1, in the assay with NCI-H522 and in the assay on COLO 205 was > 100 µM (inactive) throughout. For the same molecule, the GI50 in the assay with DU-145, in the assay with IGROV-1, with MCF7, in the assay with SR, in the assay on MDA-MB-435 and with OVCAR-3 was > 100 µM (inactive) throughout. For the same molecule, in the assay with MOLT-4, the GI50 was > 100 µM (inactive).
For the molecule `O=C1CSC2(CC(/C=C/c3ccccc3Br)=NN2c2cccc(S(=O)(=O)O)c2)N1c1nc2ccccc2s1` (configuration not stated), the GI50 in the assay with MDA-MB-231 was > 100 µM (inactive); with RXF 393 it was > 100 µM (inactive); with UACC-257, > 100 µM (inactive); in the assay on K562 it was 54.8 µM (inactive); in the assay with SF-268 it was > 100 µM (inactive); in the assay on Malme-3M, > 100 µM (inactive). The GI50 was > 100 µM (inactive) in the assay on A498; 93.5 µM (inactive) with UO-31; 53.2 µM (inactive) in the assay with NCI-H226; > 100 µM (inactive) in the assay on HL-60; > 100 µM (inactive) with CAKI-1; 52 µM (inactive) with NCI-H522. Further, the GI50 in the assay on COLO 205 was > 100 µM (inactive); in the assay on DU-145 it was > 100 µM (inactive); in the assay with IGROV-1, 55.1 µM (inactive); in the assay with MCF7, 50.4 µM (inactive); in the assay with SR it was 33 µM (inactive); with MDA-MB-435 it was 43.1 µM (inactive). For the same molecule, the GI50 in the assay on MOLT-4 is 52 µM (inactive).
Take `O=C1/C(=C\c2cccc(Oc3ccccc3)c2)S(=O)(=O)C(c2ccccc2)N1c1ccc(Cl)cc1` (configuration not stated): the GI50 in the assay with MDA-MB-231 is 14.8 µM (inactive); with RXF 393, 14.7 µM (inactive); with UACC-257, 24 µM (inactive); with K562, 10.6 µM (inactive); with Malme-3M it was 18.2 µM (inactive); with A498, 34.4 µM (inactive). The GI50 with UO-31 is 13.7 µM (inactive); in the assay on NCI-H226, 43.1 µM (inactive); in the assay with HL-60, 13.2 µM (inactive); with CAKI-1, 13.2 µM (inactive); with NCI-H522, 15.7 µM (inactive); in the assay on COLO 205 it was 14.3 µM (inactive). Moreover, the GI50 in the assay on DU-145 was 19.1 µM (inactive); with IGROV-1, 14.7 µM (inactive); in the assay on MCF7 it was 12.6 µM (inactive); in the assay with SR, 8.2 µM (inactive); in the assay with MDA-MB-435, 7.94 µM (inactive); in the assay with OVCAR-3, 14.4 µM (inactive). Besides, the GI50 with MOLT-4 is 4.59 µM (inactive).
In the case of `O=S1(=O)N=C(SCc2ccccc2)N(c2ccccc2)c2ccncc21`, the GI50 in the assay with MDA-MB-231 is 68.2 µM (inactive); in the assay with RXF 393 it was 26.6 µM (inactive); in the assay on UACC-257, 31.3 µM (inactive); in the assay on K562, 29.9 µM (inactive); with SF-268, 36.6 µM (inactive); with Malme-3M it was 49.5 µM (inactive). Moreover, the GI50 in the assay with A498 is 17.1 µM (inactive); in the assay with UO-31, 3.83 µM (inactive); in the assay with NCI-H226, 37.6 µM (inactive); with HL-60, 29.6 µM (inactive); in the assay on CAKI-1 it was 39.2 µM (inactive); in the assay with NCI-H522 it was 18.7 µM (inactive). Moreover, the GI50 is 19.7 µM (inactive) with COLO 205; 30.5 µM (inactive) with DU-145; 31.2 µM (inactive) in the assay on MCF7; 21.2 µM (inactive) in the assay on SR; 41.5 µM (inactive) in the assay with MDA-MB-435; 31.9 µM (inactive) in the assay on OVCAR-3. In addition, the GI50 in the assay on MOLT-4 was 17.7 µM (inactive).
